For one data set, the target named is PAK3 (Homo sapiens, UniProt O75914). The experiment in a line: ADP-GLO kinase inhibitory assay, PAK3. Format: biochemical. As to the method:
(§1) Based on the aforementioned results for the potential mechanism of action, the kinase inhibitory profile of compounds C6 and C11 were screened at two dose concentration of 10 and 1 µM over a panel of 15 kinases, and the kinase inhibitory activities are listed in supporting information (Supplementary Table S1).
(§2) The kinase inhibitory profile of compounds C6 and C11 were screened at two dose concentration of 10 and 1 µM over a panel of 15 kinases, and each assay was repeated twice. All the inhibitory assays were carried out through kinase profiling services provided by HY Biotech (Chinese), in which ADP-GLO kinase assays were used.
(§3) The kinase inhibitory profile of compounds C6 and C11 were screened at two dose concentration of 10 µM and 1 µM over a panel of 15 kinases, and each assay was repeated twice. All the inhibitory assays were carried out through kinase profiling services provided by HY Biotech (Chinese), in which ADP-GLO kinase assays were used.

A further data set concerns the target T1, PDK1 (Homo sapiens, UniProt O15530).
T1 sequence (O15530 1-556): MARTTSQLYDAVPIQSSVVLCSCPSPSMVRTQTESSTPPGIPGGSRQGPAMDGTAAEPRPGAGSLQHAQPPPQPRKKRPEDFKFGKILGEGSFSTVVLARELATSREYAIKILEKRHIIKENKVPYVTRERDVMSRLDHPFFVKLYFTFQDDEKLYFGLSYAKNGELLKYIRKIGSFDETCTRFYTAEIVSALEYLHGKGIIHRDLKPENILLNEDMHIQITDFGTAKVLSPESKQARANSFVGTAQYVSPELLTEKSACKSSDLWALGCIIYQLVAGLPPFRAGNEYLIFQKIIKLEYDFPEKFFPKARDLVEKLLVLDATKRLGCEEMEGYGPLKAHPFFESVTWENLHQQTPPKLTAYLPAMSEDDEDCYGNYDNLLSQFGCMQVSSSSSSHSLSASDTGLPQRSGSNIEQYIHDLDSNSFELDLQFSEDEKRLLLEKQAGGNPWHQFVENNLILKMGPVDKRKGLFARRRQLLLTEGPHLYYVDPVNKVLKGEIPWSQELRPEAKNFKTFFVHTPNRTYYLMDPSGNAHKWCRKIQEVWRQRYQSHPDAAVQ
The data set can be described thus: ADP-GLO kinase inhibitory assay, PDK1. Format: biochemical. As to the method:
as §1, §2, §3

Another data set has as its target CDK1/A2 (Homo sapiens, UniProt P06493). The data set can be described thus: ADP-GLO kinase inhibitory assay, CDK1/A2. The data set is classed as biochemical. How it is done: as §1, §2, §3
Another data set addresses RIPK3 (Homo sapiens, UniProt Q9Y572). The experiment in a line: ADP-GLO kinase inhibitory assay, RIPK3. The data set is classed as biochemical. As to the method: as §1, §2, §3
A general note: ADP-Glo first removes unused ATP, then detects ADP through luciferase.

Data set [1] has as its system HepG2 (human hepatocellular liver carcinoma cell line). The data set can be described thus: MTT in vitro cytotoxicity assay, HepG2. To be noted: for IC50: HepG2, Table 3, MTT, mean ± S.D.; for inhibition at 100 µM: HepG2, at 100 µM, read-out: Cell growth inhibition (%) HepG2. Format: cell-based. The gist of the method: (§4)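 Cytotoxicity was measured by the MTT assay, with 5-FU as control. IC50 values were derived per cell line and are given as mean ± S.D. from triplicates in three independent experiments.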

For data set [2], the system named is A875 (human melanoma cell line). The experiment in a line: MTT in vitro cytotoxicity assay, A875. Format: cell-based. Particulars: for IC50: A875, Table 3, MTT, mean ± S.D.; for inhibition at 100 µM: A875, at 100 µM, read-out: Cell growth inhibition (%) A875. The gist of the method: as §4
Another data set concerns A875 cells. The experiment in a line: LDH release (cellular necrosis). The data set is classed as cell-based, human. To be noted: 24 h after treatment. As to the method:
From the preliminary analysis of apoptosis, the results encourage us to further investigate the type of cell death induced by the potential compounds (C6 and C11). As we know, the release of LDH is a typical characteristic feature of necrotic cell death, and so which was detected.
A875 cells grown in 96-well plates were treated with serial dilutions of each tested compound for 24 h. The culture media were collected, and the concentrations of LDH were determined based on our previous research ([Huang et al., 2021]).
A875 cells grown in 96-well plates were treated with serial dilutions of each tested compound for 24 h. The culture media were collected, and the concentrations of LDH were determined with an LDH assay kit according to the manufacturer’s instructions (Abcam).
(LDH leaks from cells whose membrane has failed.)

Data set [3] relates to SGC-7901, A875, HepG2 and MARC145 cell lines. The experiment in a line: MTT in vitro cytotoxicity assay, statements over the whole cell panel. The data set is classed as cell-based. To be noted: for cytotoxic effect / inhibition activity in words: IC50-based judgement, compared with 5-FU; for inhibition activity in preliminary screening, in words: at 100 µM, inhibition rate higher than control 5-FU. As to the method:
The lead molecules A2 and all newly prepared diarylamine derivatives B1-13 and C1-11 were evaluated for their in vitro cytotoxic effects against SGC-7901, A875, HepG2 and MARC145 cell lines by the classical MTT [3-(4,5-dimethylthiazol-2-yl)-2,5-diphenyl tetrazolium bromide] assay ([Alley et al., 1988]; [Ke et al., 2012]; [Shi et al., 2012]; [Yu et al., 2015]; [Ke et al., 2019]; [Xu et al., 2019]; [Huang et al., 2021]) using 5-FU (5-Fluorouracil) as a control.
The cytotoxicity of target compounds was determined with MTT assay ([Alley et al., 1988]; [Ke et al., 2012]; [Shi et al., 2012]; [Yu et al., 2015]; [Ke et al., 2019]; [Xu et al., 2019]; [Huang et al., 2021]). SGC-7901, A875, HepG2 and MARC145 cell lines were obtained from Hubei Biopesticide Engineering Research Centre. All data of the experiment were analyzed with SPSS software, and all assay were performed in triplicate on three independent experiments, and measurement data were expressed as the mean ± S.D.
The in vitro cytotoxicity of the synthesized compounds against different cell lines (SGC-7901, A875, HepG2 and MARC145) was measured with MTT assay. All the data of the experiment were analyzed with SPSS software, and the 50% inhibitory concentrations (IC50) of each compound for the different cell lines were determined. A control was run for each test, and all assays were performed in triplicate on three independent experiments, and measurement data were expressed as the mean ± S.D.

The target of a further data set is PIM1 (Homo sapiens, UniProt P11309). The experiment in a line: ADP-GLO kinase inhibitory assay, PIM1. Format: biochemical. As to the method:
as §1, §2, §3

In data set [4] the test system is MARC145 (subclone of African green monkey kidney cell line MA-104). The data set can be described thus: MTT in vitro cytotoxicity assay, MARC145. The data set is classed as cell-based. Particulars: at 100 µM; for inhibition at 100 µM: Chlorocebus sabaeus, MARC145, read-out: Cell growth inhibition (%) MARC145. The gist of the method:
as §4

A short description of data set [5]: MTT in vitro cytotoxicity assay, MARC145. The data set is classed as cell-based, African green monkey. Particulars: African green monkey, MARC145 cells (kidney cell line, subclone of MA-104), Table 3; MTT; mean ± S.D. The gist of the method: as §4
The next data set addresses AKT3 (Homo sapiens, UniProt Q9Y243). The data set can be described thus: ADP-GLO kinase inhibitory assay, AKT3. The data set is classed as biochemical. How it is done:
as §1, §2, §3

“Also recorded” adds a separate entry of the source.

Sequence of AKT3 (Q9Y243 whole entry, species assumed): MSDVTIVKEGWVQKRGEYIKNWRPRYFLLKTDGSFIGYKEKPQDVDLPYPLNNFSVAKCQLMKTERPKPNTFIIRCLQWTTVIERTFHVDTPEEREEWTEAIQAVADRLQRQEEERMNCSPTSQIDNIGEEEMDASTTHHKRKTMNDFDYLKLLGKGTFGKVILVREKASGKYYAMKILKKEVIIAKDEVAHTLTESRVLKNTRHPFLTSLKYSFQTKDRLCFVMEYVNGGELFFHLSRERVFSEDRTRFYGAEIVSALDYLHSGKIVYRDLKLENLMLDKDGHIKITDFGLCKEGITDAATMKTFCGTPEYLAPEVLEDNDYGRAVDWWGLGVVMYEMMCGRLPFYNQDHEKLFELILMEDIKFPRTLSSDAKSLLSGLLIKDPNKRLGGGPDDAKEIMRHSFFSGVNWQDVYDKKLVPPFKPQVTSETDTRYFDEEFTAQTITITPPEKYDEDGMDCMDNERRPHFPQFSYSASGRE
Sequence of RIPK3 (Q9Y572 whole entry, species assumed): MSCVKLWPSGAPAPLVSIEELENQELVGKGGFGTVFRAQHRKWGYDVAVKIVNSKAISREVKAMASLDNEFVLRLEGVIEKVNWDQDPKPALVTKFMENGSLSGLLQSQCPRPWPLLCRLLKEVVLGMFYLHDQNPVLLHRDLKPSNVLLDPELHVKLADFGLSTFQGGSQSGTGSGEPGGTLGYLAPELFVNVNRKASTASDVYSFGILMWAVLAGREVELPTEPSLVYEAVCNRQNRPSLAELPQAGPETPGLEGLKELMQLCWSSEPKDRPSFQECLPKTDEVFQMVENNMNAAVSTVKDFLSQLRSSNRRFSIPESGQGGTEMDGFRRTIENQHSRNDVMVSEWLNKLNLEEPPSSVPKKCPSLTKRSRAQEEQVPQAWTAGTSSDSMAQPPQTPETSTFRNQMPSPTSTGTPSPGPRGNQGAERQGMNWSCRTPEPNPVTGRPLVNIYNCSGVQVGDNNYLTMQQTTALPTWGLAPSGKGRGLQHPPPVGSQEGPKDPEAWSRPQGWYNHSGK
Sequence of PIM1 (P11309 whole entry, species assumed): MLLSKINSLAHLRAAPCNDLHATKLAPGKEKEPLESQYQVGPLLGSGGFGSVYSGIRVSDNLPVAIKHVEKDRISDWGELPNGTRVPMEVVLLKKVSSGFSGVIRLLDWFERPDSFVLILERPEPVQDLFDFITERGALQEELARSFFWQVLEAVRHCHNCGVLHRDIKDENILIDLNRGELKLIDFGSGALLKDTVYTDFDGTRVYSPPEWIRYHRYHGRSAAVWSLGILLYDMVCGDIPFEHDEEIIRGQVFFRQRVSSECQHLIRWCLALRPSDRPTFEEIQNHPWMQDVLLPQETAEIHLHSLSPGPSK
Sequence of CDK1/A2 (P06493 whole entry, species assumed): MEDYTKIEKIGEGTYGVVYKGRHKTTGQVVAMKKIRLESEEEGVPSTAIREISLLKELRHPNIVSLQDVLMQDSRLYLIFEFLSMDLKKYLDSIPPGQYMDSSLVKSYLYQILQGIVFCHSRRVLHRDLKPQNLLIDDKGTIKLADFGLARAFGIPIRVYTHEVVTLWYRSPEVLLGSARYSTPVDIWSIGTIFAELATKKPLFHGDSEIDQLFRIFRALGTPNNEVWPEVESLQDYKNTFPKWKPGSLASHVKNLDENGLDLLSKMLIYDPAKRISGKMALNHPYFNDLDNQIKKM
Sequence of CDK1/A2 (P20248 whole entry partner, species assumed): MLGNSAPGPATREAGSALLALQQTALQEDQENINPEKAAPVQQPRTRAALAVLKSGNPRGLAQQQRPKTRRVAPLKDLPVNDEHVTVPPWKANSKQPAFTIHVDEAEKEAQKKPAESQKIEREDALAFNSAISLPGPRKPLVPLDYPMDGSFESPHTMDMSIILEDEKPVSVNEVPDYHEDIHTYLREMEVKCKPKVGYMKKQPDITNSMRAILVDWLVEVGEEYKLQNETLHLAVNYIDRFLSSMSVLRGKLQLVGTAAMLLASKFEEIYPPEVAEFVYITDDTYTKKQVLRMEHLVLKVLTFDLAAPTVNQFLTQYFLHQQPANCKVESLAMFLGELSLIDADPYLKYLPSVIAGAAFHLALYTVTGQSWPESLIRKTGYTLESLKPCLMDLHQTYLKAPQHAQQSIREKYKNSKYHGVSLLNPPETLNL
Sequence of PAK3 (O75914 whole entry, species assumed): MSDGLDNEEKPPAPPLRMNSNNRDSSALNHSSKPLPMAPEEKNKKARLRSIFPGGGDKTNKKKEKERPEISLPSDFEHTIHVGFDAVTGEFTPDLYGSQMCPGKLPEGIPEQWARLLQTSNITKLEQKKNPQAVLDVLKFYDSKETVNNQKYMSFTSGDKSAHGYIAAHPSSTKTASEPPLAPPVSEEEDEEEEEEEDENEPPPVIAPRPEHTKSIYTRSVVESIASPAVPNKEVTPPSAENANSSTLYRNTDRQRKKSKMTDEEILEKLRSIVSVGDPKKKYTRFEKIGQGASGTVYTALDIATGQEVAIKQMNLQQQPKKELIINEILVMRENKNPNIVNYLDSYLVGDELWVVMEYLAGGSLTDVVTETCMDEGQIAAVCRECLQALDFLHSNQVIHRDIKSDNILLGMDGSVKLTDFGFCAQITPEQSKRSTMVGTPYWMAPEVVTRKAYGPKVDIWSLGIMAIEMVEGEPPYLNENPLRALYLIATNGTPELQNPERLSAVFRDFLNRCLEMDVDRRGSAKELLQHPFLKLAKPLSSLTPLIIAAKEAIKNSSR

Take `O=C(Nc1cccc(C(F)(F)F)c1)c1cccnc1Nc1cccc(C(F)(F)F)c1` [C6, N-(3-(Trifluoromethyl)phenyl)-2-((3-(trifluoromethyl)phenyl)amino)nicotinamide]: the inhibition (usually the change of the read-out against control, counted positive when it falls) at 1 µM was 10.1% against PAK3; 10.3% at PDK1; 1.55% against CDK1/A2; -1.37% on RIPK3; 12.8% at PIM1; 16.1% against AKT3. The inhibition at 10 µM was 1.34% at PAK3; 10.1% on PDK1; -3.82% against CDK1/A2; 16.8% against RIPK3; 15.8% against PIM1; -2.65% on AKT3. Moreover, the IC50 (commonly the concentration at which inhibition is half-maximal) is 9.99 ± 1.58 µM in data set [1]; 12.8 ± 1.99 µM in [2]; 5.53 to 12.8 µM in data set [3] (SGC-7901, A875, HepG2, MARC145, read-out: IC50 values, span over the tested cell lines); 9.72 ± 2.75 µM in [5]. For the same molecule, the inhibition at 100 µM amounted to 91.3 ± 3.7% in data set [1], 91.5 ± 2.9% in data set [2] and 89.8 ± 3.4% in data set [4]. Moreover, the “release of LDH, in words” value in the data set with A875 cells is on record as “significantly increased”. The “cytotoxic effect / inhibition activity in words” value in [3] is reported as “good cytotoxic effect; also recorded: higher inhibition activities compared to the control 5-FU”. For the same molecule, in data set [3] (SGC-7901, A875, HepG2, MARC145), the “dose-response analysis of cell growth inhibition, in words” value was “significant concentration dependence”. Further, the “inhibition activity in preliminary screening, in words” value in [3] is reported as “good inhibition activity”.

As for `O=C(Nc1ccc(Cl)nc1)c1cccnc1Nc1cccc(C(F)(F)F)c1` [C11, N-(6-Chloropyridin-3-yl)-2-((3-(trifluoromethyl)phenyl)amino)nicotinamide], the inhibition at 1 µM came out at 11.8% against PAK3; 20.3% against PDK1; 38.2% against CDK1/A2; 2.34% against RIPK3; 23.1% at PIM1; 20.1% on AKT3. Further, the inhibition at 10 µM is 8.14% against PAK3; 10.9% at PDK1; -7.23% on CDK1/A2; 10.4% against RIPK3; 10.3% against PIM1; -0.49% against AKT3. Further, the “inhibition of CDK1/A2, in words” value against CDK1/A2 (at 1 μM) is reported as “some inhibitions”. Further, the IC50 was 10.2 ± 2.04 µM in data set [1], 12.3 ± 4.16 µM in data set [2] and greater than 102 µM in data set [5]. For the same molecule, the inhibition at 100 µM in [1] stood at 85.7 ± 2.4%; in data set [2], 90.5 ± 3.7%; in data set [4] it was 27.1 ± 3.6%. Further, the “release of LDH, in words” value with A875 cells is on record as “significantly increased”. In addition, the “cytotoxic effect / inhibition activity in words” value in [3] was “good cytotoxic effect; also recorded: higher inhibition activities compared to the control 5-FU”. For the same molecule, in [3] (SGC-7901, A875, HepG2, MARC145), the “dose-response analysis of cell growth inhibition, in words” value is listed as “significant concentration dependence”. Besides, the “inhibition activity in preliminary screening, in words” value in [3] is reported as “good inhibition activity”. The “inhibition on normal cell lines (MARC145), in words” value in [4] is on record as “low inhibition”.

For the origin of these results see paper PMC9315260, “Diarylamine-Guided Carboxamide Derivatives: Synthesis, Biological Evaluation, and Potential Mechanism of Action” (Frontiers in Chemistry, 2022).
